pIC50: −log10 of the molar value. Like-named read-outs stand apart in the source and are kept apart here.

Assay [1] concerns PAF-induced platelet aggregation (human platelet-rich plasma). Nature of the assay: PAF-induced platelet aggregation (in vitro). Type of assay: cell-based. To be noted: PAF 1-5×10^-8 M, read-out: PAF Antagonism (in vitro) IC50. As for the experimental part:
Platelet-activating factor (PAF) causes aggregation of platelets by a receptor-mediated mechanism. Therefore, PAF-induced platelet aggregation provides a simple and convenient assay to screen compounds for PAF antagonism.
Blood was centrifuged at 110× g for 15 min. and the supernatant platelet-rich plasma (PRP) carefully transferred into a polypropylene tube. Platelet-poor-plasma (PPP) was prepared by centrifuging PRP at 12,000× g for 2 min. (Beckman Microfuge B). PRP was used within 3 hr. of drawing the blood.
PAF was dissolved in chloroform:methanol (1:1, v/v) at a concentration of 2 mg/ml and stored at -70° C. An aliquot of this solution was transferred to a polypropylene tube and dried under a flow of nitrogen gas. […] This stock solution was further diluted to appropriate concentrations in Hepes-saline-BSA buffer. Collagen (Sigma) and adenosine diphosphate (ADP) (Sigma) were purchased as solutions. Test compounds were initially dissolved in dimethyl sulfoxide (DMSO) at a concentration of 50 mM and then further diluted in Hepes-saline-BSA buffer to achieve appropriate concentrations.
When an aggregating agent such as PAF is added to PRP, platelets aggregate. An aggregometer quantifies this aggregation by measuring and comparing light (infra-red) transmission through PPP and PRP. Aggregation assays were performed using a dual-channel aggregometer (Model 440, Chrono-Log Corp., Havertown, Pa.). PRP (0.45 ml) in aggregometer cuvettes was continually stirred (37° C.). […] Incubations were continued until the increase in light transmission reached a maximum (usually 2 min.). This increase in light transmission reflecting platlet aggregation is transmitted to a computer by the Chrono-Log model 810 AGGRO/LINK interface. The AGGRO/LINK calculates the slope of transmission change, thus providing the rate of aggregation. Values for inhibition were calculated by comparing rates of aggregation obtained in the absence and the presence of the compound. For each experiment, a standard PAF antagonist such as 8-chloro-6,11-dihydro-11-(1-acetyl-4-piperidylidene)-5H-benzo[5,6]cyclohepta[1,2-b]pyridine was used as a positive control.
Compounds that inhibit PAF-induced aggregation were tested against several other aggregating agents including collagen (0.2 mg/ml) and ADP (2 μM).

Assay [2] concerns PAF. Nature of the assay: PAF-induced bronchospasm in guinea pigs. The arrangement: species or system guinea pig (male Hartley). To be noted: Cavia porcellus, read-out: PAF Agonist Bronchospasm (in Vivo) % Inhibition.
Assay [3] concerns Histamine. As to the kind of experiment: Histamine-induced bronchospasm in guinea pigs. The assay is classed as in vivo, guinea pig (male Hartley). To be noted: oral, histamine 10 ug/kg i.v. As for the experimental part: Male Hartley guinea pigs (450-550 g) were obtained from Charles River Breeding Laboratories. The animals were fasted overnight and the following day were anesthetized with 0.9 ml/kg i.p. of dialurethane (containing 0.1 g/ml diallylbarbituric acid, 0.4 g/ml ethylurea and 0.4 g/ml urethane). The left jugular vein was cannulated for the administration of compounds. The trachea was cannulated and the animals were ventilated by a rodent respirator at 55 strokes/min. with a stroke volume of 4 ml. A side arm to the tracheal cannula was connected to a pressure transducer to obtain a continuous measure of inflation pressure. Bronchoconstriction was measured as the percent increase in inflation pressure that peaked within 5 min. after challenge with spasmogen. […] Each animal was challenged with only a single spasmogen. The effect of a compound on the bronchospasm is expressed as a percent inhibition of the increase in inflation pressure compared to the increase in a control group.

Usually pIC50 stands for the IC50 on a negative log10 scale, so that one unit is a factor of ten. By inhibition in vivo is commonly meant the percentage by which the read-out fell short of the control. Regarding `[O-][n+]1ccc(CN2CCC(=C3c4ccccc4CCc4ccccc43)CC2)cc1` [Compound 6], the pIC50 in assay [1] was 5.47. Further, the inhibition in vivo at 3 mg/kg in assay [2] (oral, PAF 0.4 μg/kg i.v.) is 0%.
On to `[O-][n+]1ccc(CN2CCC(=C3c4ccccc4Oc4cccnc43)CC2)cc1` [Compound 10], for which, in assay [1], the negative logarithm of the IC50 (pIC50) is 5.09.
As to `[O-][n+]1ccc(CN2CCC(=C3c4ccc(Cl)cc4SCc4cccnc43)CC2)cc1` [Compound 8], in assay [1], the negative-log IC50 (pIC50) was 6.00. Further, in assay [2] (oral, PAF 0.4 μg/kg i.v.), the inhibition in vivo at 5 mg/kg amounted to 67%. Also, the “Histamine Agonist Bronchospasm (in Vivo) % Inhibition” value in assay [3] (1 mg/kg) was found to be 83%.
Consider `CC(=O)N1CCC(=C2c3ccc(Cl)cc3CCc3cccnc32)CC1` [Compound 2, reference compound], for which the pIC50 in assay [1] was 6.21. Further, the inhibition in vivo at 5 mg/kg in assay [2] (oral, PAF 0.4 μg/kg i.v.) was determined as 59%. For the same compound, in assay [3] (3 mg/kg), the “Histamine Agonist Bronchospasm (in Vivo) % Inhibition” value came out at 49%.
With `[O-][n+]1ccc(CN2CCN(C3c4ccc(Cl)cc4OCc4cccnc43)CC2)cc1` (racemic) [Compound 9], in assay [1], the negative logarithm of the IC50 (pIC50) is 5.77. Moreover, in assay [2] (oral, PAF 0.4 μg/kg i.v.), the inhibition in vivo at 3 mg/kg stood at 22%.
As for `[O-][n+]1ccc(CN2CCN(C3c4ccc(Cl)cc4CCc4cccnc43)CC2)cc1` (racemic) [Compound 7], the negative-log IC50 (pIC50) in assay [1] is 6.15. Moreover, in assay [2] (oral, PAF 0.4 μg/kg i.v.), the inhibition in vivo at 3 mg/kg is 81%. For the same compound, the “Histamine Agonist Bronchospasm (in Vivo) % Inhibition” value in assay [3] (3 mg/kg) stood at 100%.
With `Clc1ccc2c(c1)CCc1cccnc1C2=C1CCN(Cc2ccncc2)CC1` [Compound 3], in assay [1], the negative-log IC50 (pIC50) is 5.14. Besides, the inhibition in vivo at 3 mg/kg in assay [2] (oral, PAF 0.4 μg/kg i.v.) came out at 32%.
As for `CCOC(=O)N1CCC(=C2c3ccc(Cl)cc3CCc3cccnc32)CC1` [Compound 1, reference compound], the inhibition in vivo at 10 mg/kg in assay [2] (po) is below 50%. Further, the “Histamine Agonist Bronchospasm (in Vivo) % Inhibition” value in assay [3] (1 mg/kg) is given as above 50%.
As to `[O-][n+]1ccc(CN2CCC(=C3c4ccc(Cl)cc4CCc4cccnc43)CC2)cc1` [Compound 4], the pIC50 in assay [1] was 5.39. Moreover, the inhibition in vivo at 3 mg/kg in assay [2] (oral, PAF 0.4 μg/kg i.v.) is 35%. Also, in assay [3] (1 mg/kg), the “Histamine Agonist Bronchospasm (in Vivo) % Inhibition” value amounted to 96%.
For `[O-][n+]1ccc(CN2CCC(=C3c4ccccc4C=Cc4ccccc43)CC2)cc1` [Compound 5], in assay [1], the negative logarithm of the IC50 (pIC50) is 5.13. Besides, the inhibition in vivo at 10 mg/kg in assay [2] (oral, 10 mg/kg, PAF 0.4 μg/kg i.v.) was found to be 15%.

For the origin of these results see US5422351A, “Bis-benzo or benzopyrido cyclohepta piperidene, piperidylidene and piperazine compounds, compositions and methods of use” (Schering Corporation, priority 1992, dated 1995).
